Laboratory results taken from patent US20200148635A1 (priority 2017, published 2020).

Legend:
Phakopsora pachyrhizi = test: Greenhouse Phakopsora pachyrhizi test in soybean, preventive; assay type: in vivo; conditions: preventive spray on soybean plants, inoculated one day after treatment with Phakopsora pachyrhizi, read-out: control compared to the untreated check
Method: Phakopsora pachyrhizi Test in Soybean
Compounds were dissolved in 2% DMSO/Acetone and then mixed with water to the calibrated spray volume of 50 mL and poured into the spray bottles for further applications.
To test the preventive activity of compounds, healthy young soybean plants raised in the greenhouse were sprayed with active compound preparation at the stated application rates inside the spray cabinets using hallowcone nozzles. One day after treatment, the plants were inoculated with spore suspension containing 2.1×10^6 Phakopsora pachyrhizi inoculum. The inoculated plants were then kept in greenhouse chamber at 25° C. temperature and 90% relative humidity for disease expression.
A visual assessment of compound's performance was carried out by rating the disease severity (0-100% scale) on treated plants on 3, 7, 10 and 15 days after application. Efficacy (% control) of the compounds was calculated by comparing the disease rating in the treatment with the one of the untreated control. The sprayed plants were also assessed for compound's plant compatibility by recording symptoms like necrosis, chlorosis and stunting.

Pyricularia oryzae = test: microbe, parasite or virus in culture; assay type: cell-based; conditions: 168 h, read-out: control compared to the untreated check
Alternaria solani = test: In vitro test Alternaria solani (early blight of tomato/potato), radial growth on Potato Dextrose Agar; assay type: cell-based; conditions: 168 h, agar plate, 25° C., seven days, read-out: control compared to the untreated check
Method: (§1) Alternaria solani (early blight of tomato/potato): Compounds were dissolved in 0.3% DMSO and then added to Potato Dextrose Agar medium just prior to dispensing it into Petri dishes. 5 mL medium with compound in the desired concentration was dispensed into 60 mm sterile Petri-plates. After solidification each plate was seeded with 5 mm size mycelial disc taken form periphery of actively growing virulent culture plate. Plates were incubated in growth chambers at 25° C. temperature and 60% relative humidity for seven days and radial growth was measured.

Septoria lycopersici = test: In vitro test Septoria lycopersici (leaf spot of tomato), radial growth on Potato Dextrose Agar; assay type: cell-based; conditions: 168 h, agar plate, 25° C., seven days, read-out: control compared to the untreated check
Method: Septoria lycopersici (Leaf Spot of Tomato):
as §1, with “Compounds” for “Alternaria solani (early blight of tomato/potato): Compounds”, “70%” for “60%”

Rhizoctonia solani = test: In vitro test Rhizoctonia solani (rice sheath blight/potato black scurf), radial growth on Potato Dextrose Agar; assay type: cell-based; conditions: 168 h, agar plate, 25° C., seven days, read-out: control compared to the untreated check
Method: Rhizoctonia solani (Rice Sheath Blight/Potato Black Scurf):
as §1, with “Compounds” for “Alternaria solani (early blight of tomato/potato): Compounds”

Row | Compound | inhibition of growth at 300 ppm (Pyricularia oryzae) [%] | inhibition of growth at 300 ppm (Alternaria solani) [%] | also measured
1 | CCN(C)C=Nc1cc(C)c(S(C)(=O)=NC(=O)c2cc(C(F)(F)F)cc(C(F)(F)F)c2)cc1Cl (stereo not shown) [Compound 31] | > 70 |  | pest or weed control at 500 ppm (Phakopsora pachyrhizi): > 70%
2 | CCN(C)C=Nc1cc(C)c(S(C)(=O)=NC(=O)c2ccccc2)cc1Cl (stereo not shown) [Compound 28] | > 70 |  | 
3 | CCN(C)C=Nc1cc(Br)c(Oc2cccc(S(C)(=O)=NCC3CCC3)c2)nc1C (stereo not shown) [Compound 69] | > 70 |  | 
4 | CCN(C)C=Nc1cc(C)c(S(C)(=O)=Nc2cccc(OC)c2)cc1Cl (stereo not shown) [Compound 24] | > 70 |  | 
5 | CCN(C)C=Nc1cc(Br)c(N=S(C)(=O)c2ccc(Br)cc2)nc1C (stereo not shown) [Compound 56] | > 70 |  | 
6 | CCN(C)C=Nc1cc(C)c(S(=O)(CC)=Nc2cccc(OC(F)(F)F)c2)cc1Cl (stereo not shown) [Compound 61] |  | > 70 | inhibition of growth at 300 ppm (Septoria lycopersici): > 70%; pest or weed control at 500 ppm (Phakopsora pachyrhizi): > 70%
7 | CCN(C)C=Nc1cc(C)c(S(=O)(CC(C)C)=Nc2ccc(OC)cc2)cc1Cl (stereo not shown) [Compound 111] | > 70 |  | 
8 | CCN(C)C=Nc1cc(C)c(S(C)(=O)=NC(=O)c2ccc(F)c(Cl)c2)cc1Cl (stereo not shown) [Compound 29] | > 70 |  | 
9 | CCN(C)C=Nc1cc(C)c(S(=O)(CC)=NC(=O)c2cccc(OC(F)(F)F)c2)cc1Cl (stereo not shown) [Compound 53] | > 70 | > 70 | 
10 | CCN(C)C=Nc1cc(C)c(S(C)(=O)=NC(=O)c2cccc(Cl)c2)cc1Cl (stereo not shown) [Compound 40] | > 70 |  | 
11 | CCN(C)C=Nc1cc(C)c(Oc2cccc(S(=N)(=O)C(F)(F)F)c2)cc1C (stereo not shown) [Compound 148] | > 70 |  | 
12 | CCN(C)C=Nc1cc(C)c(S(C)(=O)=Nc2cccc(S(F)(F)(F)(F)F)c2)cc1Cl (stereo not shown) [Compound 45] |  | > 70 | inhibition of growth at 300 ppm (Septoria lycopersici): > 70%
13 | CCN(C)C=Nc1cc(C)c(Oc2ccc(S(C)(=O)=NC#N)cc2)cc1Cl (stereo not shown) [Compound 129] |  |  | pest or weed control at 500 ppm (Phakopsora pachyrhizi): > 70%
14 | CCN(C)C=Nc1cc(C)c(S(=O)(CC)=NC(=O)c2cccc(F)c2)cc1Cl (stereo not shown) [Compound 52] |  | > 70 | 
15 | CCN(C)C=Nc1cc(C)c(N=S(=O)(CCC(C)C)c2ccccc2)cc1C (stereo not shown) [Compound 55] | > 70 |  | 
16 | CCN(C)C=Nc1cc(C)c(S(=O)(CC)=NC(=O)c2ccccc2)cc1Cl (stereo not shown) [Compound 58] | > 70 |  | 
17 | CCN(C)C=Nc1cc(C)c(Oc2ccccc2S(=O)(=NCC2CC2)C(F)(F)F)cc1Cl (stereo not shown) [Compound 152] | > 70 |  | pest or weed control at 500 ppm (Phakopsora pachyrhizi): > 70%
18 | CCN(C)C=Nc1cc(C)c(Nc2ccc(S(C)(=O)=NCC3CC3)cc2)cc1C (stereo not shown) [Compound 139] |  | > 70 | inhibition of growth at 300 ppm (Septoria lycopersici): > 70%
19 | CCN(C)C=Nc1cc(C)c(S(C)(=O)=Nc2ccc(Cl)c(C(F)(F)F)c2)cc1Cl (stereo not shown) [Compound 41] | > 70 |  | 
20 | CCN(C)C=Nc1cc(Br)c(N=S(=O)(CC2CC2)c2cccc(F)c2)nc1C (stereo not shown) [Compound 106] | > 70 |  | pest or weed control at 500 ppm (Phakopsora pachyrhizi): > 70%
21 | CCN(C)C=Nc1cc(Br)c(N=S(C)(=O)c2ccccc2)nc1C (stereo not shown) [Compound 47] | > 70 |  | pest or weed control at 500 ppm (Phakopsora pachyrhizi): > 70%
22 | CCN(C)C=Nc1cc(Br)c(N=S(=O)(CCC(C)C)c2ccccc2)nc1C (stereo not shown) [Compound 57] | > 70 |  | 
23 | CCN(C)C=Nc1cc(Br)c(N=S(=O)(c2cccc(OC)c2)C(C)C)nc1C (stereo not shown) [Compound 78] |  | > 70 | 
24 | CCN(C)C=Nc1cc(C)c(S(=O)(CC(C)C)=NCc2cccc(C(F)(F)F)c2)cc1Cl (stereo not shown) [Compound 102] | > 70 | > 70 | 
25 | CCN(C)C=Nc1cc(C)c(S(=O)(CC(C)C)=NCc2cccc(Cl)c2)cc1Cl (stereo not shown) [Compound 101] |  | > 70 | pest or weed control at 500 ppm (Phakopsora pachyrhizi): > 70%

Row | Compound | inhibition of growth at 300 ppm (Pyricularia oryzae) [%] | inhibition of growth at 300 ppm (Alternaria solani) [%] | also measured
26 | CCN(C)C=Nc1cc(C)c(S(=O)(CC)=Nc2cc(F)c(F)c(F)c2)cc1Cl (stereo not shown) [Compound 62] | > 70 | > 70 | 
27 | CCN(C)C=Nc1cc(C)c(S(=O)(CC(C)C)=NC(=O)c2ccc(F)c(Cl)c2)cc1Cl (stereo not shown) [Compound 72] | > 70 |  | 
28 | CCN(C)C=Nc1cc(C)c(Oc2cccc(S(C)(=O)=NCC#N)c2)cc1C (stereo not shown) [Compound 125] | > 70 | > 70 | 
29 | CCN(C)C=Nc1cc(C)c(Oc2cccc(S(C)(=O)=NCC3CCC3)c2)cc1C (stereo not shown) [Compound 71] | > 70 |  | 
30 | CCN=S(C)(=O)c1ccc(Cc2cc(C)c(N=CN(C)CC)cc2C)cc1 (stereo not shown) [Compound 130] |  | > 70 | 
31 | CCN(C)C=Nc1cc(C)c(S(=O)(CC)=Nc2cccc(C(F)(F)F)c2)cc1Cl (stereo not shown) [Compound 60] | > 70 |  | pest or weed control at 500 ppm (Phakopsora pachyrhizi): > 70%
32 | CCN(C)C=Nc1cc(C)c(Cc2ccccc2S(C)(=N)=O)cc1C (stereo not shown) [Compound 136] | > 70 |  | 
33 | CCN(C)C=Nc1cc(C)c(S(=O)(CC(C)C)=Nc2ccc(N(C)C)cc2)cc1Cl (stereo not shown) [Compound 110] | > 70 |  | 
34 | CCN=S(=O)(CC1CC1)c1cccc(Oc2cc(Cl)c(N=CN(C)CC)cc2C)c1 (stereo not shown) [Compound 20] |  |  | inhibition of growth at 300 ppm (Septoria lycopersici): > 70%
35 | CCN(C)C=Nc1cc(C)c(S(C)(=O)=NC(=O)c2cccc(C(F)(F)F)c2)cc1Cl (stereo not shown) [Compound 30] | > 70 |  | 
36 | CCN(C)C=Nc1cc(C)c(Cc2ccccc2S(C)(=O)=NC)cc1C (stereo not shown) [Compound 137] | > 70 |  | 
37 | CCN(C)C=Nc1cc(C)c(Oc2cccc(S(=O)(=NC)C(F)(F)F)c2)cc1C (stereo not shown) [Compound 151] | > 70 |  | 
38 | CCN(C)C=Nc1cc(C)c(Cc2ccc(S(C)(=O)=NCC3CC3)cc2)cc1C (stereo not shown) [Compound 131] |  | > 70 | 
39 | CCN(C)C=Nc1cc(C)c(S(=O)(CC)=NC(=O)c2cccc(C(F)(F)F)c2)cc1Cl (stereo not shown) [Compound 51] | > 70 | > 70 | 
40 | CCN(C)C=Nc1cc(C)c(S(=O)(CC)=NC(=O)c2nn(C)cc2C(F)F)cc1Cl (stereo not shown) [Compound 59] | > 70 |  | 
41 | CCN=S(C)(=O)c1cccc(Oc2cc(C)c(N=CN(C)CC)cc2C)c1 (stereo not shown) [Compound 54] | > 70 |  | 
42 | CCN(C)C=Nc1cc(C)c(S(C)(=O)=NC(=O)c2ccc(F)c(F)c2)cc1Cl (stereo not shown) [Compound 34] | > 70 |  | pest or weed control at 500 ppm (Phakopsora pachyrhizi): > 70%
43 | CCN(C)C=Nc1cc(C)c(S(=O)(CC(C)C)=NCc2ccc(F)c(Cl)c2)cc1Cl (stereo not shown) [Compound 100] | > 70 |  | 
44 | CCN(C)C=Nc1cc(C)c(Oc2cccc(S(C)(=O)=NCC3CC3)c2)cc1Cl (stereo not shown) [Compound 18] | > 70 |  | 
45 | CCN(C)C=Nc1cc(C)c(S(=O)(CC)=Nc2ccccc2)cc1Cl (stereo not shown) [Compound 64] |  | > 70 | 
46 | CCN(C)C=Nc1cc(C)c(N=S(=O)(c2ccccc2)C(C)C)cc1C (stereo not shown) [Compound 66] |  | > 70 | inhibition of growth at 300 ppm (Rhizoctonia solani): > 70%
47 | CCN(C)C=Nc1cc(C)c(S(C)(=O)=Nc2cccc(C(F)(F)F)c2)cc1Cl (stereo not shown) [Compound 36] | > 70 |  | 
48 | CCN(C)C=Nc1cc(C)c(N=S(=O)(c2cccc(OC)c2)C(C)C)cc1C (stereo not shown) [Compound 75] | > 70 |  | pest or weed control at 500 ppm (Phakopsora pachyrhizi): > 70%
49 | CCN(C)C=Nc1cc(C)c(Cc2ccccc2S(C)(=O)=NCC2CC2)cc1C (stereo not shown) [Compound 138] | > 70 |  | 
